Source: the supplement of paper PMC10307832

Experiments:
Assay in all cases: relative viability (nuclei count vs DMSO), 5 days (fraction); higher = more cells survive
Tipifarnib = compound: Cn1cncc1[C@@](N)(c1ccc(Cl)cc1)c1ccc2c(c1)c(-c1cccc(Cl)c1)cc(=O)n2C [Tipifarnib]
Procedure, shortened: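 Viability was defined as treated-well nuclei divided by vehicle-well nuclei, with the median taken over replicate plates. Cells from lung cancer lines sat overnight at 37 °C in 1536-well plates, received five √10-spaced library-drug doses by pinning on vehicle-anchored plates, and grew 5 days without medium change before one-step fixation, permeabilisation and Hoechst staining, 4× imaging and MetaXpress nuclear counts. Only plates with control CV under 25% and at least one doubling were kept.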

Tipifarnib + Tozasertib = compound: Cn1cncc1[C@@](N)(c1ccc(Cl)cc1)c1ccc2c(c1)c(-c1cccc(Cl)c1)cc(=O)n2C [Tipifarnib] + Cc1cc(Nc2cc(N3CCN(C)CC3)nc(Sc3ccc(NC(=O)C4CC4)cc3)n2)n[nH]1 [Tozasertib] (partner 0.1 µM)
Procedure, shortened: (§1)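 Dosing by pin tool came one day after lung cancer cell lines were seeded in 1536-well plates, using either one drug or a fixed anchor-drug dose plus five library-drug doses (not always all listed) in √10 steps. After 5 days, nuclei were counted on 4× images. Relative viability is treated-well nuclei count divided by vehicle-well nuclei count, and values are medians of duplicate plates.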

Tipifarnib + Pemetrexed = compound: Cn1cncc1[C@@](N)(c1ccc(Cl)cc1)c1ccc2c(c1)c(-c1cccc(Cl)c1)cc(=O)n2C [Tipifarnib] + Nc1nc2[nH]cc(CCc3ccc(C(=O)N[C@@H](CCC(=O)O)C(=O)O)cc3)c2c(=O)[nH]1 [Pemetrexed] (partner 0.2 µM)
Procedure, shortened: as §1

Tipifarnib + Palbociclib = compound: Cn1cncc1[C@@](N)(c1ccc(Cl)cc1)c1ccc2c(c1)c(-c1cccc(Cl)c1)cc(=O)n2C [Tipifarnib] + CC(=O)c1c(C)c2cnc(Nc3ccc(N4CCNCC4)cn3)nc2n(C2CCCC2)c1=O [Palbociclib] (partner 0.5 µM)
Procedure, shortened: as §1

Tipifarnib + Dasatinib = compound: Cn1cncc1[C@@](N)(c1ccc(Cl)cc1)c1ccc2c(c1)c(-c1cccc(Cl)c1)cc(=O)n2C [Tipifarnib] + Cc1nc(Nc2ncc(C(=O)Nc3c(C)cccc3Cl)s2)cc(N2CCN(CCO)CC2)n1 [Dasatinib] (partner 0.075 µM)
Procedure, shortened: as §1

Tipifarnib + Olaparib = compound: Cn1cncc1[C@@](N)(c1ccc(Cl)cc1)c1ccc2c(c1)c(-c1cccc(Cl)c1)cc(=O)n2C [Tipifarnib] + O=C(c1cc(Cc2n[nH]c(=O)c3ccccc23)ccc1F)N1CCN(C(=O)C2CC2)CC1 [Olaparib] (partner 8 µM)
Procedure, shortened: as §1

Tipifarnib + Luminespib = compound: Cn1cncc1[C@@](N)(c1ccc(Cl)cc1)c1ccc2c(c1)c(-c1cccc(Cl)c1)cc(=O)n2C [Tipifarnib] + CCNC(=O)c1noc(-c2cc(C(C)C)c(O)cc2O)c1-c1ccc(CN2CCOCC2)cc1 [Luminespib] (partner 0.01 µM)
Procedure, shortened: as §1

Tipifarnib + Decitabine = compound: Cn1cncc1[C@@](N)(c1ccc(Cl)cc1)c1ccc2c(c1)c(-c1cccc(Cl)c1)cc(=O)n2C [Tipifarnib] + Nc1ncn([C@H]2C[C@H](O)[C@@H](CO)O2)c(=O)n1 [Decitabine] (partner 2 µM)
Procedure, shortened: as §1

Tipifarnib + OSI-027 = compound: Cn1cncc1[C@@](N)(c1ccc(Cl)cc1)c1ccc2c(c1)c(-c1cccc(Cl)c1)cc(=O)n2C [Tipifarnib] + COc1cccc2cc(-c3nc([C@H]4CC[C@H](C(=O)O)CC4)n4ncnc(N)c34)[nH]c12 [OSI-027] (partner 0.5 µM)
Procedure, shortened: as §1

Tipifarnib + Phenformin = compound: Cn1cncc1[C@@](N)(c1ccc(Cl)cc1)c1ccc2c(c1)c(-c1cccc(Cl)c1)cc(=O)n2C [Tipifarnib] + N=C(N)NC(=N)NCCc1ccccc1 [Phenformin] (partner 250 µM)
Procedure, shortened: as §1

Tipifarnib + AZD7762 = compound: Cn1cncc1[C@@](N)(c1ccc(Cl)cc1)c1ccc2c(c1)c(-c1cccc(Cl)c1)cc(=O)n2C [Tipifarnib] + NC(=O)Nc1cc(-c2cccc(F)c2)sc1C(=O)N[C@H]1CCCNC1 [AZD7762] (partner 0.2 µM)
Procedure, shortened: as §1

Tipifarnib + Vorinostat = compound: Cn1cncc1[C@@](N)(c1ccc(Cl)cc1)c1ccc2c(c1)c(-c1cccc(Cl)c1)cc(=O)n2C [Tipifarnib] + O=C(CCCCCCC(=O)Nc1ccccc1)NO [Vorinostat] (partner 1 µM)
Procedure, shortened: as §1

Tipifarnib + Trametinib = compound: Cn1cncc1[C@@](N)(c1ccc(Cl)cc1)c1ccc2c(c1)c(-c1cccc(Cl)c1)cc(=O)n2C [Tipifarnib] + CC(=O)Nc1cccc(-n2c(=O)n(C3CC3)c(=O)c3c(Nc4ccc(I)cc4F)n(C)c(=O)c(C)c32)c1 [Trametinib] (partner 0.02 µM)
Procedure, shortened: as §1

Tipifarnib + Foretinib = compound: Cn1cncc1[C@@](N)(c1ccc(Cl)cc1)c1ccc2c(c1)c(-c1cccc(Cl)c1)cc(=O)n2C [Tipifarnib] + COc1cc2c(Oc3ccc(NC(=O)C4(C(=O)Nc5ccc(F)cc5)CC4)cc3F)ccnc2cc1OCCCN1CCOCC1 [Foretinib] (partner 0.25 µM)
Procedure, shortened: as §1

NCI-H522
relative viability (Tipifarnib; 0.01 µM): 0.917 | relative viability (Tipifarnib; 0.03162 µM): 1.06 | relative viability (Tipifarnib; 0.1 µM): 1.1 | relative viability (Tipifarnib; 0.3162 µM): 0.898 | relative viability (Tipifarnib; 1 µM): 0.748 | relative viability (Tipifarnib + Tozasertib; first compound 0.01 µM): 0.517 | relative viability (Tipifarnib + Tozasertib; first compound 0.03162 µM): 0.564 | relative viability (Tipifarnib + Tozasertib; first compound 0.1 µM): 0.525 | relative viability (Tipifarnib + Tozasertib; first compound 0.3162 µM): 0.542 | relative viability (Tipifarnib + Tozasertib; first compound 1 µM): 0.566 | relative viability (Tipifarnib + Pemetrexed; first compound 0.01 µM): 1.08 | relative viability (Tipifarnib + Pemetrexed; first compound 0.03162 µM): 1.2 | relative viability (Tipifarnib + Pemetrexed; first compound 0.1 µM): 0.886 | relative viability (Tipifarnib + Pemetrexed; first compound 0.3162 µM): 0.973 | relative viability (Tipifarnib + Pemetrexed; first compound 1 µM): 0.839 | relative viability (Tipifarnib + Palbociclib; first compound 0.01 µM): 0.9 | relative viability (Tipifarnib + Palbociclib; first compound 0.03162 µM): 1.2 | relative viability (Tipifarnib + Palbociclib; first compound 0.1 µM): 1.07 | relative viability (Tipifarnib + Palbociclib; first compound 0.3162 µM): 0.898 | relative viability (Tipifarnib + Palbociclib; first compound 1 µM): 0.923 | relative viability (Tipifarnib + Dasatinib; first compound 0.01 µM): 0.95 | relative viability (Tipifarnib + Dasatinib; first compound 0.03162 µM): 0.912 | relative viability (Tipifarnib + Dasatinib; first compound 0.1 µM): 0.861 | relative viability (Tipifarnib + Dasatinib; first compound 0.3162 µM): 0.82 | relative viability (Tipifarnib + Dasatinib; first compound 1 µM): 0.788 | relative viability (Tipifarnib + Olaparib; first compound 0.01 µM): 0.633 | relative viability (Tipifarnib + Olaparib; first compound 0.03162 µM): 0.677 | relative viability (Tipifarnib + Olaparib; first compound 0.1 µM): 0.621 | relative viability (Tipifarnib + Olaparib; first compound 0.3162 µM): 0.67 | relative viability (Tipifarnib + Olaparib; first compound 1 µM): 0.542 | relative viability (Tipifarnib + Luminespib; first compound 0.01 µM): 0.831 | relative viability (Tipifarnib + Luminespib; first compound 0.03162 µM): 1.33 | relative viability (Tipifarnib + Luminespib; first compound 0.1 µM): 1.18 | relative viability (Tipifarnib + Luminespib; first compound 0.3162 µM): 1.08 | relative viability (Tipifarnib + Luminespib; first compound 1 µM): 1.27 | relative viability (Tipifarnib + Decitabine; first compound 0.01 µM): 0.657 | relative viability (Tipifarnib + Decitabine; first compound 0.03162 µM): 0.725 | relative viability (Tipifarnib + Decitabine; first compound 0.1 µM): 0.582 | relative viability (Tipifarnib + Decitabine; first compound 0.3162 µM): 0.586 | relative viability (Tipifarnib + Decitabine; first compound 1 µM): 0.592 | relative viability (Tipifarnib + OSI-027; first compound 0.01 µM): 0.66 | relative viability (Tipifarnib + OSI-027; first compound 0.03162 µM): 0.709 | relative viability (Tipifarnib + OSI-027; first compound 0.1 µM): 0.725 | relative viability (Tipifarnib + OSI-027; first compound 0.3162 µM): 0.584 | relative viability (Tipifarnib + OSI-027; first compound 1 µM): 0.615 | relative viability (Tipifarnib + Phenformin; first compound 0.01 µM): 0.617 | relative viability (Tipifarnib + Phenformin; first compound 0.03162 µM): 0.698 | relative viability (Tipifarnib + Phenformin; first compound 0.1 µM): 0.65 | relative viability (Tipifarnib + Phenformin; first compound 0.3162 µM): 0.599 | relative viability (Tipifarnib + Phenformin; first compound 1 µM): 0.563 | relative viability (Tipifarnib + AZD7762; first compound 0.01 µM): 0.925 | relative viability (Tipifarnib + AZD7762; first compound 0.03162 µM): 1.03 | relative viability (Tipifarnib + AZD7762; first compound 0.1 µM): 0.875 | relative viability (Tipifarnib + AZD7762; first compound 0.3162 µM): 0.754 | relative viability (Tipifarnib + AZD7762; first compound 1 µM): 0.662 | relative viability (Tipifarnib + Vorinostat; first compound 0.01 µM): 0.908 | relative viability (Tipifarnib + Vorinostat; first compound 0.03162 µM): 0.761 | relative viability (Tipifarnib + Vorinostat; first compound 0.1 µM): 0.835 | relative viability (Tipifarnib + Vorinostat; first compound 0.3162 µM): 0.776 | relative viability (Tipifarnib + Vorinostat; first compound 1 µM): 0.806 | relative viability (Tipifarnib + Trametinib; first compound 0.01 µM): 0.802 | relative viability (Tipifarnib + Trametinib; first compound 0.03162 µM): 0.834 | relative viability (Tipifarnib + Trametinib; first compound 0.1 µM): 0.739 | relative viability (Tipifarnib + Trametinib; first compound 0.3162 µM): 0.68 | relative viability (Tipifarnib + Trametinib; first compound 1 µM): 0.696

NCI-H1623
relative viability (Tipifarnib; 0.01 µM): 1.07 | relative viability (Tipifarnib; 0.03162 µM): 1.12 | relative viability (Tipifarnib; 0.1 µM): 0.946 | relative viability (Tipifarnib; 0.3162 µM): 0.886 | relative viability (Tipifarnib; 1 µM): 0.818 | relative viability (Tipifarnib + Tozasertib; first compound 0.01 µM): 0.427 | relative viability (Tipifarnib + Tozasertib; first compound 0.03162 µM): 0.39 | relative viability (Tipifarnib + Tozasertib; first compound 0.1 µM): 0.441 | relative viability (Tipifarnib + Tozasertib; first compound 0.3162 µM): 0.413 | relative viability (Tipifarnib + Tozasertib; first compound 1 µM): 0.368 | relative viability (Tipifarnib + Foretinib; first compound 0.01 µM): 0.904 | relative viability (Tipifarnib + Foretinib; first compound 0.03162 µM): 0.954 | relative viability (Tipifarnib + Foretinib; first compound 0.1 µM): 0.911 | relative viability (Tipifarnib + Foretinib; first compound 0.3162 µM): 0.765 | relative viability (Tipifarnib + Foretinib; first compound 1 µM): 0.587 | relative viability (Tipifarnib + Dasatinib; first compound 0.01 µM): 0.547 | relative viability (Tipifarnib + Dasatinib; first compound 0.03162 µM): 0.493 | relative viability (Tipifarnib + Dasatinib; first compound 0.1 µM): 0.551 | relative viability (Tipifarnib + Dasatinib; first compound 0.3162 µM): 0.583 | relative viability (Tipifarnib + Dasatinib; first compound 1 µM): 0.293 | relative viability (Tipifarnib + Luminespib; first compound 0.01 µM): 0.647 | relative viability (Tipifarnib + Luminespib; first compound 0.03162 µM): 0.37 | relative viability (Tipifarnib + Luminespib; first compound 0.1 µM): 0.411 | relative viability (Tipifarnib + Luminespib; first compound 0.3162 µM): 0.412 | relative viability (Tipifarnib + Luminespib; first compound 1 µM): 0.325 | relative viability (Tipifarnib + OSI-027; first compound 0.01 µM): 0.4 | relative viability (Tipifarnib + OSI-027; first compound 0.03162 µM): 0.426 | relative viability (Tipifarnib + OSI-027; first compound 0.1 µM): 0.418 | relative viability (Tipifarnib + OSI-027; first compound 0.3162 µM): 0.361 | relative viability (Tipifarnib + OSI-027; first compound 1 µM): 0.319 | relative viability (Tipifarnib + Phenformin; first compound 0.01 µM): 0.603 | relative viability (Tipifarnib + Phenformin; first compound 0.03162 µM): 0.556 | relative viability (Tipifarnib + Phenformin; first compound 0.1 µM): 0.553 | relative viability (Tipifarnib + Phenformin; first compound 0.3162 µM): 0.565 | relative viability (Tipifarnib + Phenformin; first compound 1 µM): 0.374
